# Counter-ions that a name gives are not always drawn.
# How the values were obtained:
# Acetylcholinesterase = target: T1, Acetylcholinesterase (Rattus norvegicus, UniProt P37136); experiment: cholinesterase inhibitory activity using (acetyl-[^3 H])-acetylcholine, S1 fraction of rat cerebral cortex homogenate; type: biochemical, male Wistar rat; conditions: 30 min incubation
# T1 construct: Using the S1 fraction of a male Wistar rat cerebral cortex homogenate as a source of cholinesterase; from tissue; host or cells: male Wistar rat cerebral cortex homogenate, S1 fraction
# T1 sequence (P37136 32-614): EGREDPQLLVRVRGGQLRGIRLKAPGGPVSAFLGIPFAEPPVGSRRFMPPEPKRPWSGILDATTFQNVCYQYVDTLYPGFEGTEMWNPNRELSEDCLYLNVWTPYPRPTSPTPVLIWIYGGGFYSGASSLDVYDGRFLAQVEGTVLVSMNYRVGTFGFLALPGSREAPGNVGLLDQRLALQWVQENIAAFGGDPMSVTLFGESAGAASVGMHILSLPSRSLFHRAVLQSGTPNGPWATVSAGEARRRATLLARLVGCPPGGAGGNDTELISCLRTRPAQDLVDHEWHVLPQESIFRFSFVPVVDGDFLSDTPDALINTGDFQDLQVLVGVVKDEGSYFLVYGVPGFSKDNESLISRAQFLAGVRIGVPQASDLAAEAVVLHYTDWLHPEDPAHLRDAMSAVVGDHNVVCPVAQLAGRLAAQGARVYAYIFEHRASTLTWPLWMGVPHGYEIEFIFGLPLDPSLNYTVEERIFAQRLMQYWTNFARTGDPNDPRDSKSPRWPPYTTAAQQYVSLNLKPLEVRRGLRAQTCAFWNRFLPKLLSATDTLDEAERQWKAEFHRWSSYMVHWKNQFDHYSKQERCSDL
# Description: The cholinesterase inhibitory activity of the compound of the present invention was tested, using (acetyl-[^3 H])-acetylcholine. Using the S1 fraction of a male Wistar rat cerebral cortex homogenate as a source of cholinesterase, (acetyl-[^3 H])-acetylcholine, as a substrate, and the test compound, as a sample, were incubated for 30 minutes. After the reaction was terminated, a toluene scintillator was added and the reaction mixture was shaken to migrate the [^3 H]-acetic acid resulting from the reaction to the toluene layer, where radioactivity was counted using a liquid scintillation counter to determine the cholinesterase inhibitory activity.
# The sample's cholinesterase inhibitory activity was expressed by 50% inhibitory concentration (IC50).
# [1] = tested on: [^3 H]-norepinephirine(NE) uptake; experiment: monoamine uptake inhibition, [^3 H]-norepinephirine (NE), crude synaptosomal preparations of cerebral cortex and hippocampus; type: biochemical; conditions: [^3 H]-NE 11 nM; 37° C; rat synaptosomes; read-out: Monoamine Reuptake Inhibitory Activity IC50, NE
# Description: (§1) Effects of the compound of this invention on monoamine uptake were investigated using [^3 H]-norepinephirine(NE) and [3H]-serotonin (5-HT). Rats were sacrificed by decapitation. The cerebral cortex and hippocampus were removed and homogenized in 10-15 volumes (W/V) of an ice-cold medium containing 0.32M sucrose. Crude synaptosomal preparations (P2) were isolated after differential centrifugation at 1000×g for 10 min and 20,000×g for 30 min at 4° C. Synaptosomal membranes were suspended in Krebs-Ringer bicarbonate (KRB) solution (116 mM NaCl, 4.8 mM KCl, 1.3 mM CaCl2, 1.2 mM MgSO4, 1.2 mM NaH2 PO4, 25 mM NaHCO3, 0.1 mM EDTA-2Na, 11.1 mM D-glucose, 0.11 mM L-ascorbic acid, 0.01 mM pargyline). Synaptosomal membrane suspension (900 μl) was preincubated with the test compound dissolved in DMSO solution at 37° C. for 5 min. The reaction was initiated by addition of 100 μl of [^3 H]-NE (11 nM in final concentration) or [^3 H]-HT (10 nM in final concentration). Five minutes later, the reaction was stopped by the addition of 4 ml of ice-cold KRB and the reaction mixture was filtered through Whatman CF/B. Filters were washed twice with 4 ml of KRB and the radioactivity bound was counted with liquid scintillant. Imipramine was used as positive control.
# [2] = tested on: [3H]-serotonin (5-HT) uptake; experiment: monoamine uptake inhibition, [3H]-serotonin (5-HT), crude synaptosomal preparations of cerebral cortex and hippocampus; type: biochemical; conditions: [^3 H]-HT 10 nM; 37° C; rat synaptosomes; read-out: Monoamine Reuptake Inhibitory Activity IC50, 5-HT
# Description: as §1
# [3] = background art; cited from earlier work
Compound,IC50 (Acetylcholinesterase) [nM],IC50 [1] [nM],IC50 [2] [nM],duration of action [3],toxicity [3]
O=C(CCN1CCC(Cc2ccccc2)CC1)c1cc2c3c(c1)CCN3C(=O)CC2 [31-4],188,160,20.7,–,–
"O=C(CCC1CCN(Cc2ccccc2)CC1)c1ccc2c3c1CCCC3CN2 (centres unmarked) [compound 4, 1-(1,2,2a,3,4,5-Hexahydrobenz[cd]indol-6-yl)-3-[1-(phenylmethyl)piperidin-4-yl]-1-propanone dihydrochloride]",91.8,347,601,–,–
"Cc1ccccc1CN1CCN(CCC(=O)c2cc3c4c(c2)CC(=O)N4CCC3)CC1 [compound 23, 8-[3-[4-[(2-Methylphenyl)methyl]-1-piperazinyl]-1-oxopropyl]-5,6-dihydro-4H-pyroro[3,2,1-ij]quinolin-2(1H)-one dihydrochloride]",61.4,2430,66.8,–,–
CNC(=O)Oc1ccc2c(c1)[C@]1(C)CCN(C)[C@@H]1N2C [physostigmine],–,–,–,short duration of action,strong toxicity

# From patent US5686466A, “Tricyclic condensed heterocyclic compounds their production and use” (priority 1993, dated 1997)
